One test concerns ZMY60. Conditions: ZMY60, after 16 hours of growth. How it is done: (§1) For assaying the effects of copper ions on recombinant yeast strains, wild type and recombinant strains are grown in 5 ml of CSM media on a roller drum incubation apparatus at 30° C. for 18 to 20 hours. Cultures are diluted to an A600(absorbance of light at 600 nm) of about 0.02 in 5 ml CSM media without or with various concentrations of CuSO4 (10 μM, 50 μM, 100 μM, 250 μM, 1 mM and 2 mM) for 18 to 20 hours. The A600 of the various samples is read and recorded.
(§2) The copper sensitivity of yeast strain CTY145 was compared with that of ZMY60 by growing each strain in the presence of increasing amounts of added copper and measuring cell number at increasing times.

For another test, the system named is CTY145. To be noted: CTY145, after 16 hours of growth. How it is done: as §1, §2
The test system of test [1] is copper regulated CHS3 strain. Nature of the test: Drug sensitivity profiling, 96 well copper sulfate x compound dilution plate. Format: cell-based, S. cerevisiae. Conditions: CHS3 copper regulated control, 48 hours at 37° C. How it is done: (§3) In one embodiment, such drug sensitivity is analyzed utilizing the copper regulated strains of the invention according to the following non-limiting method. In a single 96 well assay plate, a serial dilution of copper sulfate is created from right to left. On the same plate a serial dilution of compound is created along the opposite axis to give the final compound and copper concentrations shown in FIG. 12. Each well is inoculated with 10^3 cells ml^−1. Growth is scored by eye after 48 hours incubation at 37° C. As the copper concentration is increased, the level of target expressed is reduced. Consequently, inhibition of growth should occur at a lower compound concentration (FIG. 13, panel a). […] (FIG. 13, panel c).
(§4) In a single 96 well assay plate, a serial dilution of copper sulfate was created from right to left. On the same plate a serial dilution of compound was created along the opposite axis to give the final compound and copper concentrations. Each well was inoculated with 10^3 cells/mL. Yeast cell growth was scored by eye after 48 hours incubation at 37° C.
(§5) Plates were setup as described above and inoculated with wild-type, copper regulated ALG7 and copper regulated CHS3 strains. CHS3 encodes chitin synthase and provides a second control. Following 48 hours incubation at 37° C., plates were examined to assess growth (FIG. 16).

For another test, the system named is wild-type strain. Described as above. Format: cell-based, S. cerevisiae. Conditions: wild type control, 48 hours at 37° C. How it is done:
as §3, §4, §5

Test [2] deals with copper regulated ALG7 strain. The description is as above. In kind it is cell-based, S. cerevisiae. To be noted: ALG7 copper regulated cells, 48 hours at 37° C., growth scored by eye. How it is done: as §3, §4, §5
For test [3], the system named is ALG7/alg7 heterozygous diploid S. cerevisiae strain. Conditions: Giaever et al.; cited from earlier work.
In another test the test system is ALG7. To be noted: Kukuruzinska et al. 1995; cited from earlier work.

As for `O=S(=O)([O-])[O-].[Cu+2]` [copper, copper sulfate], the “highest concentration of copper at which the log-phase growth rate was maintained unaffected” value in the test on ZMY60 is given as 250 μM. In the test on CTY145, the “highest concentration of copper at which the growth rate was maintained” value is reported as 1 mM.

As to tunicamycin, the “sensitivity to compound as the copper concentration was increased” value in test [1] is given as “No increase in sensitivity”; in the test on wild-type strain, “No increase in sensitivity”; in test [2], “increased sensitivity”. The “sensitivity of ALG7/alg7 heterozygous diploid strain” value in test [3] is given as “increased sensitivity”. In addition, the “sensitivity to tunicamycin on downregulation of ALG7 expression” value in the test on ALG7 is “hypersensitivity”.

The values above are taken from US6531289B1, “Regulated gene expression in yeast and method of use” (Anadys Pharmaceuticals, Inc., priority 1997, dated 2003).
